Key:
[1] = spontaneous isomerisation at room temperature monitored by HPLC; format: physicochemical
From the text: The main difference between the spectra is the hypsochromic shift of the Compound 2 peak maxima of about 3 nm.

Compound: CC/C=C\C/C=C\C/C=C/C=C/C=C/C=C/CCCC(=O)O [5E,7E,9E,11E,14Z,17Z-eicosahexaenoic acid]
- oxidative metabolism (HEK293 cells): appears to be oxidized through a monooxygenation system in HEK293 cells, and the products released to the medium
- elongation to a 22 carbon fatty acid (HEK293 cells; compared with AA or EPA): appeared not to be elongated efficiently to a 22 carbon fatty acid
- cellular uptake and assimilation into complex lipids (HEK293 cells; fractionation of organic extracts on aminopropyl columns): taken up by the cells and assimilated into complex lipids

Compound: CC/C=C\C/C=C\C\C=C/C=C/C=C/C=C/CCCC(=O)O [Compound 1, 5E,7E,9E,11Z,14Z,17Z-eicosahexaenoic acid]
- stability (geometrical isomerisation) [1]: spontaneous room temperature conversion of Compound 1 to Compound 2

Reference: patent US7091369B2, “Synthesis of polyconjugated fatty acids” (Board of Trustees Operating Michigan State University, priority 2003, dated 2006)
